Patent US9737525B2, “Small molecule activators of NRF2 pathway” (The General Hospital Corporation, priority 2013, dated 2017)

What was measured:
primary human monocytes = test: Cytokine production by primary monocytes from HD patients and controls; assay type: cell-based; parameters: Levels of IL-1, IL-6, IL-8 and TNFα: dose or concentration left out as unconfirmed
Description: Blood samples were obtained from control subjects and genetically-diagnosed, symptomatic HD patients. Patients were classed as having early or moderate-stage disease using the total functional capacity (TFC) scale (13-7, early; 6-3, moderate) [Marder, 2000]. Subjects with inflammatory or infective conditions were excluded. Cells were isolated from whole blood, as previously described [Björkqvist, 2008]. In brief, 50 ml whole blood was collected in heparin (CP Pharmaceuticals) and leukocytes were isolated by density gradient centrifugation. Monocytes were sorted via magnetic cell separation columns using anti-CD14 microbeads (Miltenyi Biotec). Monocytes were seeded at 1×10^5 cells per well in 96-well PRIMARIA™ tissue culture plates (BD Falcon) with R10 media (RPMI culture medium supplemented with 10% FCS, 2 mM L-glutamine, 50 U/ml penicillin and […] streptomycin (Invitrogen)). […] Supernatants were analyzed using the human pro-inflammatory II (4-plex) MSD assay measuring IL-1b, IL-6, IL-8 and TNFα. […] Cell death was measured using a LDH assay (CytoTox-Fluor™ Cytotoxicity Assay from Promega). Normalized cytokine levels have been analyzed on the logarithmic scale due to their skewed distribution. […] Contrasts of interest were then calculated using linear combinations of parameter estimates.

[1] = Detection of MIND4 in mouse brain after escalated i.p. dosing; assay type: in vivo; details: brain cortex, intraperitoneal, i.p. daily, escalated 50 to 275 mg/kg, 2 hours after last dose, HPLC, read-out: Concentration in wild type mouse cortices
Description: To evaluate whether MIND4 would also confer an anti-inflammatory effect in vivo, pilot studies were performed to assess brain permeability of MIND4 in mice (FIG. 7A-B). MIND4 was solubilized at 5 mg/ml in 7.5% Cremophor EL (BASF)/2.375% Ethanol in PBS, Wild type mice (N=3) were subjected to MIND4 treatment at escalated dosing from 50 mg/kg up to a final dose of 275 mg/kg administered daily by intraperitoneal (i.p.) injection. […] Mice were sacrificed 2 hours following the last drug administration and isolated cortical samples were subjected to HPLC analysis.
Specifically, frozen mouse cortical tissues were extracted in ice cold methanol containing 0.4% acetic acid (approximately 1:6 ratios), probe sonicated for 5 sec and centrifuged at 22000×g for 20 min at 4 C. The supernatant was dried under centrifugation and vacuum and reconstituted with running buffer. Reverse phase-HPLC/ECA separation was accomplished on shisedo MG240 C18 HPLC column (4.6×250 mm, 3μ particle size), flow rate 1 ml/min, using 50% methanol in 0.1M sodium phosphate buffer pH 3, isocratic elution was performed for 20 min using 4 channel electrochemical array. Levels of MIND4 in the brain samples were determined using integrated peak areas and the standard curves

Row | SMILES | Levels of IL-1, IL-6, IL-8 and TNFα (primary human monocytes; HD patient cells) | IL-1, IL-6, IL-8 and TNFα production (primary human monocytes; monocytes from HD patients and normal subjects, LPS and IFN-g stimulation, different doses) | concentration at 2 h [1] [nM]
1 | O=[N+]([O-])c1ccc(Sc2nnc(COc3ccccc3)n2-c2ccccc2)nc1 [MIND4-17] | significant decrease in the levels of all four cytokines | reduced IL-1, IL-6, IL-8, and TNFα production | –
2 | O=[N+]([O-])c1ccc(Sc2nnc(COc3ccccc3)n2-c2ccccc2)c2ncccc12 [MIND4, 5-nitro-8-{[5-(phenoxymethyl)-4-phenyl-4H-1,2,4-triazol-3-yl]thio}quinoline] | – | – | ~500
